Literature values, collected in patent US20250345482A1, “3D PRINTED GALLIUM SCAFFOLD” (Northeast Ohio Medical University, priority 2024, published 2025).

Tests used:
[1] = system: osteoclast differentiation and function; conditions: inventors' earlier publication (Ghanta P. et al. 2023)
NFAT2, TRAP, and c-Fos = conditions: literature (Verron E et al. 2012)

| SMILES | Osteoclast differentiation and function [1] | Effect on transcription factors responsible for osteoclast differentiation (NFAT2, TRAP, and c-Fos) |
| --- | --- | --- |
| CC(=O)/C=C(/C)[O][Ga]([O]/C(C)=C\C(C)=O)[O]/C(C)=C\C(C)=O [GaAcAc, gallium acetylacetonate] | effectively inhibited |  |
| O=[N+]([O-])[O-].O=[N+]([O-])[O-].O=[N+]([O-])[O-].[Ga+3] [gallium nitrate] |  | dose-dependent downregulation |
